Experiments:
[1] = target: T1, Na^+/K^+-ATPase (NKA), α1 isoform (Sus scrofa, UniProt P05024); assay: ouabain-sensitive ATPase activity, NADH-coupled assay at […] nm, […] °C; format: biochemical
T1 construct: gene ATP1A1; native enzyme purified from porcine kidney outer medulla (α/β heterodimer); with NKA β-subunit (α/β heterodimer)

[2] = target: T1, Na^+/K^+-ATPase (NKA), α1 isoform; assay: ouabain-sensitive ATP hydrolysis ([…] ouabain), NADH-coupled assay; format: biochemical

| IC50 [1] [µM] | SMILES | ouabain-sensitive ATP hydrolysis (500 μM ouabain), NADH-coupled assay [2] |
| --- | --- | --- |
| 7 ± 1 | COc1ccc(-c2nnc(Nc3nc4c(OC)cccc4s3)o2)cc1 [N106, N-(4-methoxy-1,3-benzothiazol-2-yl)-5-(4-methoxyphenyl)-1,3,4-oxadiazol-2-amine] |  |
|  | C[C@@H]1O[C@@H](O[C@H]2C[C@@H](O)[C@]3(CO)[C@H]4[C@H](O)C[C@]5(C)[C@@H](C6=CC(=O)OC6)CC[C@]5(O)[C@@H]4CC[C@]3(O)C2)[C@H](O)[C@H](O)[C@H]1O [ouabain] | The enzymatic activity was verified through ouabain (OUA)-sensitive ATP hydrolysis assays prior to use in experiments. |

From PMC12731165, “Dual Modulation of Cardiac Ion Pumps: A Small-Molecule SERCA2a SUMOylation Enhancer Also Inhibits the Na^+/K^+-ATPase” (Biomedicines, 2025)
